Source: patent US20250090510A1, “eIF4G1-eIF1 INHIBITORS AND USE THEREOF” (YEDA RESEARCH AND DEVELOPMENT CO. LTD., priority 2022, published 2025)

Experiments:
[1] = tested on: human blood cells; test: Effect on host blood cells in the parasitemia assay; conditions: i14G1-10 20 uM, i14G1-12 10 uM; 1 hour
Protocol: Parasitemia assay. The NF54 strain of the Plasmodium falciparum was used for the Survival test. Parasites were grown in RPMI medium pH 7.4, 25 mg/ml HEPES, 50 μg/ml hypoxanthine, 2 mg/ml sodium bicarbonate, 20 μg/ml gentamycin, and 0.5% (w/v) Albumax II (Invitrogen). Pooled donor red blood cells, provided by the Israeli blood bank, at 4% hematocrit, and incubated at 37° C. in a gas mixture of 1% 02, 5% CO2 in N2 were used.
Parasitaemia levels were measured 24 hours later.

[2] = tested on: HEK293T cells; test: TCP-seq (translation complex profiling) of 48S footprints; assay type: cell-based, human; conditions: 5 μM, one hour
From the text: FIGS. 9A-H: Inhibition of eIF1-eIF4G1 leads to 48S instability and scanning defect (9A) Polysome profiles of HEK293T cells treated with DMSO or i14G1-12 after crosslinking with formaldehyde, lysis and Rnase I digestion. The grey layer represents the fractions corresponding to the 40S ribosome used for the TCP-seq library preparation. (9B) Heatmap representing the log 2 mean of the relative number of reads mapping to the individual tRNAs in i14G1-12 over DMSO (n=3). The number of reads was normalized to the codon frequency in the human transcriptome. (9C) Volcano plot showing log 2 fold change (FC) of the abundance of each tRNAs comparing i14G1-12 over DMSO with FDR <0.05 and a log 2 FC threshold of 1. (9D) Histograms showing the relative number of reads mapping to mRNA in DMSO vs. i14G1-12. (9E) Metagene plots of normalized ribosome footprints (RPFs) counts on leader region. Numbers indicate the slope of the regression lines. (9F) Volcano plot showing log 2 fold change of the differential initiation analysis in i14G1-12 over DMSO. […] (9G) Bar chart of the relative number of reads mapping to each mRNA feature in DMSO and i14G-12.
FIGS. 10A-J: Definition of leaky scanning and its regulation by specific mRNA features and eIF1-eIF4G1. (10A) Metagene plots of normalized ribosome footprints (RPFs) counts on CDS region. (10B) Scatter plot representing the leaky scanning score (LS) of transcripts in i14G1-12 versus DMSO. Transcripts with a significant LS (FDR <0.05) in DMSO and i14G1-12 are highlighted. […] (10D) Boxplots of the leaky scanning score in DMSO and in i14G1-12. […] (10F) Plot of the mean GC content in a 20 nt window around the start codon of leaky and non-leaky transcripts in DMSO and i14G1-12. (10G) Boxplot representing the log 5′ UTR length of leaky and non-leaky transcripts in DMSO and i14G1-12.
HEK293T cells were grown to 90% confluence at 37° C. in a humidified incubator supplemented with 5% CO2. Cells were treated with DMSO or 5 μM i14G1-12 for 1 hour. After treatment, cells were directly removed from the incubator and treated with 0.15% formaldehyde for 10 min on ice with slow shaking. The reaction was stopped by adding 37.5 mM glycine for 5 minutes. Media was aspirated and the plates were washed with cold PBS. Cells were lysed with fresh lysis buffer (100 mM KCl, 20 mM Tris-HCl pH 8, 1.5 mM MgCl2, 1.5% (v/v) NP-40, 2 mM DTT) supplemented with protease inhibitor for 20 min in a cold room with slow agitation. Lysates were clarified by centrifugation at 20,000 g. RNA amount was quantified by nanodrop. 10% of the lysate was kept and snap freeze for total RNA extraction. Digestion was performed by the addition of 0.0075 U Rnase I per μg of RNA to the lysate for 30 min at room temperature. Digestion was stopped by adding a Super RNase inhibitor (ThermoFischer). Lysates were loaded onto a 5-45% sucrose gradient (100 mM KCl, 20 mM HEPES pH 7, 5 mM MgCl2, 2 mM DTT) and centrifuged at 39000 rpm for two hours and forty-five minutes in an SW41 rotor at 4° C. Gradients were analyzed through a UV lamp (254 nm) and an Absorbance detector while being fractionated in 250 μL fractions using a Foxy Junior Fraction Collector (Isco).
RNA from the undigested extract and the sucrose gradient fractions corresponding to the 40S were extracted by addition of 1 mL or one volume of TRIzol respectively. Samples were heated at 65° C. for 15 minutes and vortexed every five minutes. Extraction was continued by addition of chloroform and alcohol precipitation of the aqueous phase. RNA-seq libraries were prepared with the TruSeq stranded RNA Library Prep (Illumina). TCP-seq libraries were prepared as described herein by selecting footprints reads with a length ranging from 16 nt to 85 nt. Libraries were sequenced at the iGE3 Genomic Platform (UNIGE) on a Hiseq 4000. […]

| Compound | effect on human blood cells [1] | iMet tRNA abundance in 48S fractions ([2]; relative to DMSO) | number of reads mapping to mRNAs ([2]; relative to DMSO) | number of leaky genes (LS >3) ([2]; DMSO n=637) [genes] | number of non-leaky genes (LS<−3) ([2]; DMSO n=1223) [genes] | number of downregulated differentially scanned genes ([2]; log 2 FC threshold 1, FDR 0.05) [genes] | number of upregulated differentially scanned genes ([2]; log 2 FC threshold 1, FDR 0.05) [genes] |
| --- | --- | --- | --- | --- | --- | --- | --- |
| O=C(/C=C/Sc1ccc(C(F)(F)F)cn1)c1ccccc1 [i14G1-10] | not adversely affected |  |  |  |  |  |  |
| Cn1ccnc1S/C(=C/C=C(C#N)C#N)c1ccc(Cl)cc1 [i14G1-12] |  | most downregulated tRNA | significantly decreased | 1266 | 325 | 476 | 10 |
